The target of the experiment is α-amylase. As to the kind of experiment: starch hydrolysis, dinitrosalicylic acid assay at […] nm. Type of experiment: biochemical.

Each structure is given as a SMILES string. Values after ≈ are worked out from the molar mass of the structure shown.

The term IC50 denotes the concentration that inhibits the measured activity by half. High values mean weaker potency in that assay, low ones greater potency in that assay.

In turn, `CC[C@H](/C=C/[C@@H](C)[C@H]1CC[C@H]2[C@@H]3CC=C4C[C@@H](O)CC[C@]4(C)[C@H]3CC[C@]12C)C(C)C` [stigmasterol] displayed an IC50 of 89.27 µg/mL (≈ 216 µM).

Source of the values: article PMC8481687, “Anti-diabetic Potential of a Stigmasterol From the Seaweed Gelidium spinosum and Its Application in the Formulation of Nanoemulsion Conjugate for the Development of Functional Biscuits” (Frontiers in Nutrition, 2021).
